From patent US11332459B2 (TEIJIN PHARMA LIMITED, priority 2017, dated 2022)
Structures can show the parent of a compound that is named as a salt.

Target: T1, human TRPC6 (Homo sapiens, UniProt Q9Y210)
T1 construct: expressed in transfected cells
T1 sequence (Q9Y210 1-931): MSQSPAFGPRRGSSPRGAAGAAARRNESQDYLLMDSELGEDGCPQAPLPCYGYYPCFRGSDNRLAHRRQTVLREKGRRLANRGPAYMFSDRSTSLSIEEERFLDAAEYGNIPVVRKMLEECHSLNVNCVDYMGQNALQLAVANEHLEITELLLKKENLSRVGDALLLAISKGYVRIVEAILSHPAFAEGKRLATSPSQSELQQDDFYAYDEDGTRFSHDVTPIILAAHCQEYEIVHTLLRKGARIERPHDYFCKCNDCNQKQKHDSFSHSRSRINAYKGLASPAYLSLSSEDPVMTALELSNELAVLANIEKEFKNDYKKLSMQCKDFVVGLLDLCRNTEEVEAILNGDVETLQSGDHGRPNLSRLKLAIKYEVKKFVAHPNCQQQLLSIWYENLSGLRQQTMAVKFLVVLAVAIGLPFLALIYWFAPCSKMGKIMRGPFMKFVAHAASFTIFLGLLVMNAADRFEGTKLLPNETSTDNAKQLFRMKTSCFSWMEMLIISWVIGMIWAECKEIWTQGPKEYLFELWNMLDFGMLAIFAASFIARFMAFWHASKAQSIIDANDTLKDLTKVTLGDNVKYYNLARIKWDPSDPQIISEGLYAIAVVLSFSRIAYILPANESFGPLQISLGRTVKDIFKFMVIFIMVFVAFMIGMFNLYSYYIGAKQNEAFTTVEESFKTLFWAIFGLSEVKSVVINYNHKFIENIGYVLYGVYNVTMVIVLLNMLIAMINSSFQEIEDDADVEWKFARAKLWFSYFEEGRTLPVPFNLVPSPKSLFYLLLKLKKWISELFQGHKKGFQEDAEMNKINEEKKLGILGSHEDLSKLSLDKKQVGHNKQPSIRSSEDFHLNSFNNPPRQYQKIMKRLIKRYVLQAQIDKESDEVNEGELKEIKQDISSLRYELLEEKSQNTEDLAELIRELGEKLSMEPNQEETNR
Assay: TRPC6 calcium flux assay (FLIPR, OAG-stimulated calcium influx)
Format: cell-based
Conditions: HEK293 cells stably transfected with human TRPC6, read-out: hTRPC6 Potency
Method in brief: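 IC50 derived by plotting background-corrected peak fluorescence (180 s window, normalized to OAG-triggered signal vs buffer) against dose. Stable human TRPC6 HEK293 line was dye-loaded, exposed to compound 25 min, then challenged with 50 uM final OAG in 2 mM Ca2+ HEPES buffer pH 7.2, 0.5% DMSO.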

SMILES	IC50 [nM]
CS(=O)(=O)c1ccc2c(c1)nc(N1CC[C@@H](F)[C@H](N)C1)n2Cc1ccc(Cl)cn1 [Example 30, (3R,4R)-1-(1-((5-chloropyridin-2-yl)methyl)-5-(methylsulfonyl)-1H-benzo[d]imidazol-2-yl)-4-fluoropiperidin-3-amine]	1940
N#Cc1ccc(Cn2c(N3CC[C@@H](O)[C@H](N)C3)nc3ccccc32)nc1 [Example 95, 6-((2-((3R,4R)-3-amino-4-hydroxypiperidin-1-yl)-1H-benzo[d]imidazol-1-yl)methyl)nicotinonitrile]	> 3750
N#Cc1ccc(Cn2c(N3CC[C@H](F)[C@H](N)C3)nc3cc(C#N)ccc32)nc1 [Example 69, 2-((3R,4S)-3-amino-4-fluoropiperidin-1-yl)-1-((5-cyanopyridin-2-yl)methyl)-1H-benzo[d]imidazole-5-carbonitrile]	14.7
N[C@@H]1CN(c2nc3cc(F)c(F)cc3n2CC(=O)N(CCO)C2CC2)CC[C@H]1F [Example 617, 2-(2-((3R,4R)-3-amino-4-fluoropiperidin-1-yl)-5,6-difluoro-1H-benzo[d]imidazol-1-yl)-N-cyclopropyl-N-(2-hydroxyethyl)acetamide]	33.2
N#Cc1ccc(Cn2c(N3CCC[C@H](N)C3)nc3ccc(C#N)cc32)nc1 [Example 51, (S)-2-(3-aminopiperidin-1-yl)-1-((5-cyanopyridin-2-yl)methyl)-1H-benzo[d]imidazole-6-carbonitrile]	6.47
N#Cc1ccc2nc(N3CC[C@@H](F)[C@H](N)C3)n(Cc3cnc(C#N)cn3)c2c1 [Example 249, 2-((3R,4R)-3-amino-4-fluoro-1-piperidinyl)-1-((5-cyano-2-pyrazinyl)methyl)-1H-benzimidazole-6-carbonitrile]	7.65
Cn1ncc2cccc(Cn3c(N4CC[C@@H](F)[C@H](N)C4)nc4cc(F)c(F)cc43)c21 [Example 264, (3R,4R)-1-(5,6-difluoro-1-((1-methyl-1H-indazol-7-yl)methyl)-1H-benzimidazol-2-yl)-4-fluoro-3-piperidinamine]	217
N#Cc1ccc2c(c1)nc(N1CC[C@H](F)[C@H](N)C1)n2Cc1ncc(Cl)cn1 [Example 204, 2-((3R,4S)-3-amino-4-fluoropiperidin-1-yl)-1-((5-chloropyrimidin-2-yl)methyl)-1H-benzo[d]imidazole-5-carbonitrile]	4.92
N[C@@H]1CN(c2nc3cc(F)cnc3n2Cc2ncc(Cl)cn2)CC[C@H]1F [Example 583]	420
N[C@@H]1CN(c2nc3ccc(Cl)cc3n2CC(=O)N2CCOCC2)CC[C@H]1F [Example 495, 2-(2-((3R,4R)-3-amino-4-fluoropiperidin-1-yl)-6-chloro-1H-benzo[d]imidazol-1-yl)-1-morpholinoethanone]	12.7
COc1cnc(Cn2c(N3CC[C@@H](F)[C@H](N)C3)nc3ccc(F)cc32)nc1 [Example 444, (3R,4R)-4-fluoro-1-(6-fluoro-1-((5-methoxypyrimidin-2-yl)methyl)-1H-benzo[d]imidazol-2-yl)piperidin-3-amine]	4.42
CO[C@@H]1CCN(c2nc3ccc(F)cc3n2Cc2ccc(C#N)cn2)C[C@H]1N [Example 451]	0.613
C[C@@H]1CCN(c2nc3ccccc3n2Cc2ccc(C#N)cc2)C[C@@H]1N [Example 163, 4-((2-((3R,4R)-3-amino-4-methylpiperidin-1-yl)-1H-benzo[d]imidazol-1-yl)methyl)benzonitrile]	2840
N#Cc1ccc(Cn2c(N3CC[C@@H](F)[C@H](N)C3)nc3cc(C#N)ccc32)nc1 [Example 54, 2-((3R,4R)-3-amino-4-fluoropiperidin-1-yl)-1-((5-cyanopyridin-2-yl)methyl)-1H-benzo[d]imidazole-5-carbonitrile]	5.52
N#Cc1ccc2c(c1)nc(N1CC[C@@H](F)[C@H](N)C1)n2Cc1ncc(Br)cn1 [Example 201, 2-((3R,4R)-3-amino-4-fluoropiperidin-1-yl)-1-((5-bromopyrimidin-2-yl)methyl)-1H-benzo[d]imidazole-5-carbonitrile]	43.9
N#Cc1ccc(Cn2c(N3CC[C@@H](F)[C@H](N)C3)nc3cc(OC(F)(F)F)ccc32)nc1 [Example 20, 6-((2-((3R,4R)-3-amino-4-fluoropiperidin-1-yl)-5-(trifluoromethoxy)-1H-benzo[d]imidazol-1-yl)methyl)nicotinonitrile]	1.92
N[C@@H]1CN(c2nc3ccc(F)cc3n2CC(=O)N(CC(F)(F)F)C2CC2)CC[C@H]1F [Example 662, 2-(2-((3R,4R)-3-amino-4-fluoropiperidin-1-yl)-6-fluoro-1H-benzo[d]imidazol-1-yl)-N-cyclopropyl-N-(2,2,2-trifluoroethyl)acetamide]	283
COc1ccc2c(c1)nc(N1CCC[C@@H](N)C1)n2Cc1ccc(C#N)cc1 [Example 186, (R)-4-((2-(3-aminopiperidin-1-yl)-5-methoxy-1H-benzo[d]imidazol-1-yl)methyl)benzonitrile]	278
NC(=O)c1cnc(Cn2c(N3CC[C@@H](F)[C@H](N)C3)nc3cc(F)c(F)cc32)cn1 [Example 133, 5-((2-((3R,4R)-3-amino-4-fluoro-1-piperidinyl)-5,6-difluoro-1H-benzimidazol-1-yl)methyl)-2-pyrazinecarboxamide]	6.98
N[C@@H]1CN(c2nc3ccc(C(F)(F)F)cc3n2CC(=O)N2CCC2)CC[C@@H]1F [Example 308, 2-(2-((3R,4S)-3-amino-4-fluoropiperidin-1-yl)-6-(trifluoromethyl)-1H-benzo[d]imidazol-1-yl)-1-(azetidin-1-yl)ethan-1-one]	> 3750
N[C@@H]1CN(c2nc3cc(F)c(F)cc3n2CC(=O)N2CCOCC2)CC[C@H]1F [Example 276, 2-(2-((3R,4R)-3-amino-4-fluoro-1-piperidinyl)-5,6-difluoro-1H-benzimidazol-1-yl)-1-(4-morpholinyl)ethanone]	42.2
CN(CC1CCOC1)C(=O)Cn1c(N2CC[C@@H](F)[C@H](N)C2)nc2cc(F)c(F)cc21 (mixture of isomers) [Example 633, 2-(2-((3R,4R)-3-amino-4-fluoropiperidin-1-yl)-5,6-difluoro-1H-benzo[d]imidazol-1-yl)-N-methyl-N-((tetrahydrofuran-3-yl)methyl)acetamide]	240
C[C@@H](c1ccc(C#N)cn1)n1c(N2CC[C@@H](F)[C@H](N)C2)nc2ccc(C#N)cc21 [Example 225, 2-((3R,4R)-3-amino-4-fluoropiperidin-1-yl)-1-((S)-1-(5-cyanopyridin-2-yl)ethyl)-1H-benzo[d]imidazole-6-carbonitrile hydrochloride]	2.81
CC1CN(C(=O)Cn2c(N3CC[C@@H](F)[C@H](N)C3)nc3cc(F)c(F)cc32)CCO1 (mixture of isomers) [Example 507]	102
CN(C(=O)Cn1c(N2CC[C@@H](F)[C@H](N)C2)nc2ccc(F)cc21)[C@H]1CCOC1 [Example 664, 2-(2-((3R,4R)-3-amino-4-fluoropiperidin-1-yl)-6-fluoro-1H-benzo[d]imidazol-1-yl)-N-methyl-N-((S)-tetrahydrofuran-3-yl)acetamide]	555
N#Cc1ccc(Cn2c(N3C[C@@H]4CC[C@@H](N)[C@@H]4C3)nc3ccccc32)nc1 [Example 79, 6-((2-((3aS,4R,6aR)-4-aminohexahydrocyclopenta[c]pyrrol-2(1H)-yl)-1H-benzo[d]imidazol-1-yl)methyl)nicotinonitrile hydrochloride]	5.09
